US20170290844A1, “Methods of Treatment” (GlaxoSmithKline Intellectual Property Development Limited, priority 2014, published 2017)

Legend:
[1] = system: COPD BECs infected with HRV16; assay: Gene expression by real-time PCR in ALI cultures of COPD BECs infected with HRV16; type: cell-based, human; conditions: 24 h post HRV16 infection
Text: (§1) Air-liquid interface (ALI) cultured human bronchial epithelial cells (BECs) from chronic obstructive pulmonary disease (COPD) donors were either bought fully differentiated (Epithelix Sarl, Cat. No. EP10MD) or cultured in-house using the Pneumocult method (StemCell Technologies, Cat. No. 05001), in a 24-well format. Primary cells for in-house ALI cultures were obtained from Epithelix Sarl, Cat. No. EP18AB.
(§2) Prior to infection, ALI cells were washed twice in warm PBS (with Ca2^+/Mg2^+). Subsequently, human rhinovirus 16 was applied at multiplicity of infection (MOI) of 1 or 5 in a total volume of 50 μl culture medium. The virus was allowed to attach for 1h at room temperature with gentle agitation. […]
(§3) Ribonucleic acid (RNA) from ALI cultured COPD BECs was prepared by lysing the cells in RLT buffer supplied with Promega Total RNA Isolation System (Promega, Cat. No. Z3505). […] Amplification of specific targets was performed by quantitative real-time polymerase chain reaction (qRT-PCR) using the TaqMan® gene expression system (Applied Biosystems Cat. No. 4369510) and ready to use TaqMan® primer/probes (see Table 1). […]

T-cell = T-cell chemotaxis in response to supernatants from HRV16 infected COPD BECs; type: cell-based; conditions: supernatants of COPD BECs 72 h post HRV16 infection
[2] = system: COPD bronchial epithelial cells infected with HRV16; assay: Genome-wide transcriptional analysis by microarray of COPD BECs infected with HRV16; type: cell-based, human; conditions: 72 h HRV16 infection
Text: as §1
(§4) Prior to infection, ALI cells were washed twice in warm PBS (with Ca2^+/Mg2^+). Subsequently, human rhinovirus 16 was applied at multiplicity of infection (MOI) of 1 or 5 in a total volume of 50 μl culture medium. The virus was allowed to attach for 1h at room temperature with gentle agitation. Consequently, the virus was washed off with warm PBS (with Ca2^+/Mg2^+) and cells were further cultured at 37° C. for the indicated amount of time either with or without the addition of a rsecretase inhibitor CompA (S)-2-[2-(3,5-difluorophenyl)-acetylamino]-N—((S)-1-methyl-2-oxo-5-phenyl-2,3-dihydro-1H-benzo[e][1,4]diazepin-3-yl)-propionamide, (Calbiochem Cat. No. 565790).
as §3, with “Z3505). RNA was then extracted by using the manufacturer's protocol with automation. Murine total lung RNA was isolated by first homogenisation of the lung in 1 ml TRIZOL™ reagent, then subsequent phase separation with 1-bromo-3-chloropropane (BCP) (MRC, Cat. No. BP151). The aqueous phase was then mixed with 70% ethanol and final RNA extraction was achieved using the Promega Total RNA Isolation System with automation.” for “Z3505).”

healthy neutrophil = assay: Neutrophil chemotaxis in response to supernatants from HRV16 infected COPD BECs; type: cell-based; conditions: supernatants of COPD BECs 72 h post HRV16 infection, versus untreated infected samples
[3] = system: COPD BECs infected with HRV16; assay: Mucociliary responses of BECs infected with HRV16 (real-time PCR, AB/PAS staining, β-tubulin IV immunofluorescence); type: cell-based, human
Text: as §1, §4
Ribonucleic acid (RNA) from ALI cultured COPD BECs was prepared by lysing the cells in RLT buffer supplied with Promega Total RNA Isolation System (Promega, Cat. No. Z3505). RNA was then extracted by using the manufacturer's protocol with automation. Murine total lung RNA was isolated by first homogenisation of the lung in 1 ml TRIZOL™ reagent, then subsequent phase separation with 1-bromo-3-chloropropane (BCP) (MRC, Cat. No. BP151). The aqueous phase was then mixed with 70% ethanol and final RNA extraction was achieved using the Promega Total RNA Isolation System with automation. Complementary deoxyribonucleic acid (cDNA) was synthesised by reverse transcription using MultiScribe™ Reverse Transcriptase and random primers according to the manufacturer's protocol (Applied Biosystems, Cat. No. 4368814). Amplification of specific targets was performed by quantitative real-time polymerase chain reaction (qRT-PCR) using the TaqMan® gene expression system (Applied Biosystems Cat. No. 4369510) and ready to use TaqMan® primer/probes (see Table 1). Global gene expression analysis was performed by microarray using the Human Genome U133 Plus 2.0 genechip and was done either by Epistem Ltd. (Manchester, UK) or Expression Analysis, Inc. (Durham, US). Data analysis was performed using Array Studio software (OmicSoft Corporation, Cary, US) with GC-RMA normalisation algorithm. Probes with intensities less than the geometric mean of 64 were discarded. […]
ALI cultured BECs were fixed in 4% paraformaldehyde (PFA) overnight. Mucus load was assessed by histological sections with Alcian Blue/Periodic Acid Schiff (AB/PAS) stainings and were performed by the GSK PTS histological core facility. […]

[4] = system: ALI cultured COPD BECs infected with HRV16; assay: Protein secretion of immune mediators in supernatants of ALI cultured COPD BECs (MSD/ELISA); type: cell-based, human; conditions: 72 h post HRV16 infection
Text: as §1, §2
Detection of secreted proteins was done on the Meso Scale Discovery (MSD®) platform according to the manufacturer's protocol. Chemokines CXCL6 and CCL5 were detected by enzyme linked immunosorbent assay (ELISA) kits both bought from R&D systems, Cat. Nos. DY333 and DRN00B, respectively. […] Analytical flow cytometry was performed using the FACSCanto II (Beckton Dickinson) and analysed using FlowJo software (Tree Star, Inc. Ashland, US).

[5] = system: female Balb/c mice following HRV1B inoculation; assay: Inflammation and mucus gene expression in lungs of mice following HRV1B inoculation; type: in vivo; conditions: 8 h post infection, 0.5 mg/kg
Method: For in-vivo experiments, 8 weeks old female BALB/c mice were intra-nasally infected with 1×10^8 plaque forming units (PFUs) of human rhinovirus serotype 1b (HRV1b) virus in a total of 50 μl and either treated or not with a γ-secretase inhibitor CompB N2-[(2S)-2-(3,5-difluorophenyl)-2-hydroxyethanoyl]-N1-[(7S)-5-methyl-6-oxo-6,7-dihydro-5H-dibenzo[b,d]azepin-7-yl]-L-alaninamide at a concentration of 0.5 mg/kg. To assess inflammation to the lung, broncho-alveolar lavage fluid (BALF) was collected and cellular infiltrates analysed on the Sysmex cell analysis system (Milton Keynes, UK). Subsequently, whole lung was placed into 1 ml of TRIZOL™ reagent for downstream gene expression analysis.
as §3, with “Z3505). RNA was then extracted by using the manufacturer's protocol with automation. Murine total lung RNA was isolated by first homogenisation of the lung in 1 ml TRIZOL™ reagent, then subsequent phase separation with 1-bromo-3-chloropropane (BCP) (MRC, Cat. No. BP151).” for “Z3505).”

[6] = healthy and COPD human BECs at ALI

Row | Compound | gene expression of T-cell associated chemokines [1] | gene expression of neutrophilic chemokines [1] | T-cell chemotaxis (T-cell) | cilia associated genes (expression) [2] | interferon response [2] | upregulation of goblet cell associated genes [2] | neutrophil chemotaxis (healthy neutrophil) | ciliation ([3]; COPD BECs, 72 h, ciliated cell genes and β-tubulin IV staining) | mucus production ([3]; COPD BECs, 72 h, goblet cell genes and AB/PAS staining) | loss of ciliation [3, 6] | mucus secretion [3, 6] | secretion of T-cell associated chemokines [4] | secretion of neutrophilic chemokines [4] | mucin gene expression (Muc5ac) in lungs [5] | recruitment of neutrophils into the lungs (BAL) [5]
1 | C[C@H](NC(=O)Cc1cc(F)cc(F)c1)C(=O)N[C@H]1N=C(c2ccccc2)c2ccccc2N(C)C1=O [CompA, (S)-2-[2-(3,5-difluorophenyl)-acetylamino]-N—((S)-1-methyl-2-oxo-5-phenyl-2,3-dihydro-1H-benzo[e][1,4]diazepin-3-yl)-propionamide] | less affected | transcriptional inhibition | unaltered | restores cilia associated genes | left unaltered | inhibits upregulation of goblet cell associated genes | reduced | restores ciliation | inhibits mucus production | prevents the loss of ciliation | reduces mucus secretion | less affected | reduced secretion | – | –
2 | C[C@H](NC(=O)[C@@H](O)c1cc(F)cc(F)c1)C(=O)N[C@@H]1C(=O)N(C)c2ccccc2-c2ccccc21 [CompB, N2-[(2S)-2-(3,5-difluorophenyl)-2-hydroxyethanoyl]-N1-[(7S)-5-methyl-6-oxo-6,7-dihydro-5H-dibenzo[b,d]azepin-7-yl]-L-alaninamide] | – | – | – | – | – | – | – | – | – | – | – | – | – | reduced | reduced
